In a melting point compilation (Tetko et al.; mined from patent text by program, amines drawn as free bases though some values may be those of a salt) one finds melting point data, which are given here for 90 compounds.

Bounds are passed on as bounds.

The term melting point denotes the temperature, or range, at which the solid turns liquid. Compound `CCOC(=O)CN1C(=O)c2cccc3c(Br)ccc1c23` displayed a melting point of 128 to 130 °C. The same measure for `COC(=O)CNC(=O)c1[nH]c(C)c(-c2nc3ccc(C(=O)c4ccccc4)cc3[nH]2)c1C`: 149 to 151 °C; for `C[C@]12CCC(=O)N[C@@H]1CCc1cc(-c3ccc([N+](=O)[O-])cn3)ccc12`: 123 to 124 °C. As for `Cc1c(-c2ccccc2)oc2c(S(=O)(=O)CCCCl)cccc2c1=O`, the figure is 160 to 163 °C; as for `CNC(=O)[C@@H]1C[C@@H](OC)CN1C(=O)OCc1ccccc1`, 45 to 47 °C; as for `O=C(O)CCC(=O)OC1CCCN(C(=O)Cn2c(=O)sc3ccc(Cl)cc32)C1` (stereo not given), 131 to 133 °C. `O=C(NCc1ccccc1)Nc1nnc(-c2ccc(CN3CCCCCC3)s2)o1` registered a melting point of 184 to 185 °C. The compound `O=C(CNCc1ccc(OCc2ccccc2)cc1)NCCCOc1ccccc1` registered a melting point of 55 to 56 °C.

In turn, `COc1cc(CCc2cnc(N)nc2N)cc(OC)c1OC` returned a melting point of 155 to 157 °C. `OCc1c(F)c(Cl)c(F)c(Cl)c1F` returned a melting point of 67 to 68 °C.

In turn, `COC1CCN(c2cc3c(cc2C#Cc2ccccc2)NC(=O)CC(c2cccc(-n4ccnc4)c2)=N3)CC1` yielded a melting point of 222 °C. For the compound `O=C(N1CCc2ccccc2CC1)C(F)(F)F`, the melting point fell in the range of 73 to 74 °C. The same measure for `COc1cc(Oc2c(Cl)cccc2C(F)(F)F)nc(C(=O)O)c1`: 110 to 112 °C; for `Cc1cc(C)nc(N(CCN(C(C)C)C(C)C)C(N)=O)n1`: 134 to 136 °C; for `COc1cccc2c(=O)sc(C(=O)O)cc12`: 283 to 284 °C. As for `COc1nc(N)nc2oc(C)cc12`, the figure is 173 to 175 °C. The same measure for `CS(=O)(=O)c1ccc(-c2c(-c3ccccc3)noc2C(F)F)cc1`: 126 to 128 °C; for `CC(C)n1nc(-c2cnc(N)nc2-c2ccco2)ccc1=O`: 215 °C.

`CNC(=NCCSCc1ccc2nc[nH]c2c1)NC#N` showed a melting point of 191 °C. As for `CN1CCN(c2nccnc2Cl)CC1`, the figure is 34 to 36 °C; as for `NNc1ccnc(-c2cccc(I)c2)n1`, 179 to 181 °C.

`Cc1noc(NS(=O)(=O)c2ccccc2-c2ccc(-c3cccnc3)cc2)c1C` registered a melting point of 96 to 106 °C. As for `CCOC(=O)Cn1c(=O)c(=O)[nH]c2cc(C(F)(F)F)c(-n3ccc(C=NOCc4ccccc4)c3)cc21`, the figure is 142 to 147 °C; as for `Cn1ncc2cc3ncc(-c4ccc(Cl)s4)nc3cc21`, 225 to 227 °C; as for `CN1Cc2ccccc2P1(=O)c1ccccc1` (stereo not given), 129 to 130 °C. Compound `CC(=Cc1ccccc1)n1c(=O)n(CCCCCl)c2ccccc21` gave a melting point of 90 °C. The same measure for `CCOCc1cc(OC)c(-c2ccc(C[C@H](NC(=O)c3c(F)cccc3F)C(=O)OCC)cc2)c(OC)c1`: 87 to 89 °C. The same measure for `Cc1cc(C)nc(N(C#N)c2ccccc2)n1`: 153 to 154 °C; for `Fc1ccc(-c2cc(Br)sc2-c2ccc(F)cc2)cc1`: 91 to 93 °C. The same measure for `CC(C)(C)C(=O)C(N)=O`: 69 to 70 °C; for `Cc1ccc(C)c(OCc2ccccc2C(Cl)Cl)c1`: 62 to 65 °C; for `COC(=O)c1ccc(C(=O)c2cc3c(cc2C)OC2(C)C4CCC(C)(C4)C32C)cc1` (stereo not given): 140 to 142 °C. In the case of `COc1ccc(C)c(Nc2c(C#N)cnc3c2C=C2N=C(NCCN4CCOCC4)N=C2C3)c1`, the melting point lay in the range of 148 to 150 °C. As for `CN1C(=O)CC[C@]2(C)c3ccc(NC(=O)c4ccc([N+](=O)[O-])cc4)cc3CC[C@@H]12`, the figure is 269 to 270 °C; as for `CC1=CC(=C=C2C(C#N)C(=C(C#N)C#N)OC2(C)C)C=C(C)N1c1ccccc1` (stereo not given), 290 °C; as for `O=c1[nH]c2[nH]c3ccccc3c2c2ccccc12`, more than 310 °C. As for `CC(C)(C)OC(=O)C(=[N+]=[N-])C(=O)CCl`, the figure is 40 to 41 °C; as for `Cc1nc(C)c(C)c(NCCNCC(O)COc2ccccc2)n1` (stereo not given), 119 to 121 °C; as for `Cc1cc(C)c(C(=O)CCCCC(=O)O)c(O)c1C`, 146 to 148 °C. `COc1cc(-c2ccccc2)nc(-c2ccc(C)cc2)n1` yielded a melting point of 99 to 100 °C. As for `CCN(CC)C(=O)c1ccc(OC)cc1`, the figure is 40 to 42 °C; as for `Cc1cc(-c2nc3cccnn3c2-c2ccnc(NC(=O)c3ccc4ncsc4c3)c2)ccc1F`, 252 to 253 °C; as for `CCOC(=O)c1c(CN(CC)CC)nc2ccc(Cl)cc2c1-c1ccccc1`, 107 to 108 °C. As for `N#CC(C#N)=C1N(CCCN2CCCCC2)CCN1CCN1CCCCCC1`, the figure is 80 to 86 °C; as for `O=C(NCCCCC1CCSS1)N1CCSCC1` (stereo not given), 80 to 81 °C; as for `c1ccc(Cn2cccc2-c2nc(Nc3ccc(-c4ccccc4)cc3)nc(Nc3ccc(-c4ccccc4)cc3)n2)cc1`, 185 to 186 °C. The same measure for `COc1ccc(N(CCCC(O)CO)S(=O)(=O)c2c(F)c(F)c(F)c(F)c2F)cc1` (stereo not given): 116 to 118 °C; for `O=C(O)CCc1cn(Cc2ccc(F)cc2)c2ccc(C(=O)CC(=O)C(=O)O)cc2c1=O`: 184 to 187 °C. For the compound `CC1(C)Cc2cc(C3=NNC(=O)C4CCC34)ccc2NC1=O` (stereo not given), the melting point is 301 to 302 °C. The same measure for `COc1cc(C(O)c2ccccc2[N+](=O)[O-])c(Br)cn1` (stereo not given): 128 to 131 °C; for `CC(=O)CSC1=CC(=O)CC(c2ccccc2Cl)C1` (stereo not given): 81 to 82 °C; for `CCOc1cc(Cc2ccc(Cl)cc2Cl)nc(-c2ccc3c(n2)CCCC3)n1`: 98 to 100 °C. Consider `O=C(Nc1ccc(Cl)cc1)NC1N=C(c2ccccc2)c2ccccc2-n2cnnc21` (stereo not given), for which the melting point lay within 294 to 296 °C. As for `N#CC1(c2ccncc2)CCCCC1`, the figure is 79 °C. The same measure for `O=C(NC1CCN(CC(O)COc2cccc3ccccc23)CC1)c1ccccc1` (stereo not given): 139 to 141 °C. Take `CCC1(C(F)(F)F)C(=O)NC(=O)NC1=O`: the melting point was 208 to 209 °C. As for `O=[N+]([O-])c1c(NCC(O)CO)cccc1NCC(O)CO` (stereo not given), the figure is 138 °C; as for `CC(=O)Nc1c(N)cc(Br)cc1OCc1ccccc1`, 185 °C; as for `CC1(C)Cc2cc(OCC(N)=O)c3c(c2C(c2ccccc2)=N1)CC(C)(C)O3`, 117 to 119 °C. The same measure for `Cc1ccc(-c2ccccc2C(N)=O)cc1`: 128 to 130 °C. The same measure for `COc1ccc2[nH]cc(-c3cc4c(OC)ncnc4n3S(=O)(=O)c3ccc(C)cc3)c2c1`: 131 °C. Regarding `Cc1[nH]c(C=O)c(C)c1C(=O)NCC1CCCCN1` (stereo not given), the melting point is 107 to 115 °C. The same measure for `Cc1cccc(CO)c1CNc1cc(Br)cc2c1nc(C)n2C`: 215 to 216 °C; for `CCC1(CC)C(=O)Nc2ccc(-c3cccc(Cl)c3)cc21`: 156 to 159 °C; for `O=C(NCCCCn1cncn1)c1ccc(Cl)s1`: 97 to 99 °C.

`O=C1CCC(N2Cc3c(OCc4ccc(Cn5ccnc5)cc4)cccc3C2=O)C(=O)N1` (stereo not given) yielded a melting point of 248 to 250 °C.

In turn, `CCCCOC(=O)C(=O)c1ccc2c(c1)C1(C)CCN(C)C1N2C` (stereo not given) had a melting point of 56 to 61 °C. The same measure for `O=Cc1c2ccccc2c(C=O)c2cc3ccccc3cc12`: 215 to 217 °C; for `CC(C)N(C(=O)c1nn(-c2ccc(F)cc2F)c2c1C1CCC2C1)C(C)C` (stereo not given): 107 to 109 °C. In turn, `CCCOc1ncc(C(C)=O)cc1-c1nc2c(CC)n(C3CN(C(C)C)C3)nc2c(=O)[nH]1` had a melting point of 163 to 164 °C. The compound `COc1ccc(-n2cnc3ccc(-c4nnc(CCc5cccc(F)c5)o4)cc32)cc1` showed a melting point of 145 to 147 °C. As for `CC(CC(=O)O)NC(=O)c1ccccc1` (stereo not given), the figure is 150 to 152 °C; as for `Cc1c(N)c(C#N)cc(F)c1F`, 114 to 116 °C. As for `Cc1ccc(C(=O)NC(NC(=S)Nc2ccc(Cl)nc2)C(F)(F)F)cc1` (stereo not given), the figure is 199 to 200 °C; as for `CC1=CC(c2cccc(F)c2)C2=C(CCCC2=O)N1` (stereo not given), 216 to 218 °C.

`COc1cc(OC)c(-c2c(C)noc2C)cc1C=CC(=O)c1ccc(C(=O)O)cc1` registered a melting point of more than 260 °C. As for `N#CCN1C(=O)COc2cc(F)c([N+](=O)[O-])cc21`, the figure is 196 to 200 °C; as for `NC1(Cl)C=CN=C(Cl)N1` (stereo not given), 55 to 56 °C; as for `CCOc1noc(-c2ncn(C(c3ccccc3)(c3ccccc3)c3ccccc3)n2)c1C`, 181 to 183 °C. As for `CSc1nc(C)c(CCN2CC=C(c3c[nH]c4ccccc34)CC2)c(=O)n1C`, the figure is 245 to 246 °C.

`CCN(CC)C(=O)c1nn(-c2ccc(OC(F)(F)F)cc2)c2cccc(F)c2c1=O` yielded a melting point of 118 °C.

Turning to `Cc1cc(C2c3cc4c(cc3CC(C)NN2C(=O)NC(C)c2ccccc2)OCO4)ccc1[N+](=O)[O-]` (stereo not given), the melting point fell in the range of 202 to 204 °C. As for `Nc1c(Cl)cc(C(O)CNCCCCCCOCCCc2cncc(CC(=O)O)c2)cc1Cl` (stereo not given), the figure is 191 to 192 °C; as for `COc1ccc(Cn2nc(-c3ccc(SC)cc3)c(-c3ccc(F)cc3)cc2=O)cc1`, 165 to 166 °C; as for `Cc1cc(N2CCC(N3CCCC3C)C2)ccc1C(=O)NC1CCOCC1` (stereo not given), 147 °C. The same measure for `Cn1ccnc1Sc1ccc(Nc2c(C#N)cnc3cc(Br)ccc23)cc1Cl`: 258 to 261 °C; for `CN1C(=O)C(C2OC(=O)c3ccccc32)N(C)C(=O)C1Cc1ccccc1` (stereo not given): 225 °C; for `N#CC(N=Nc1cc(S(=O)(=O)O)ccc1OC(=O)c1ccccc1)=C(OC(=O)c1ccccc1)c1ccccc1`: 193 to 195 °C. As for `CC(O)CNc1nc(NCc2ccccc2N)c2ncn(C(C)C)c2n1` (racemic), the figure is 175 to 179 °C. `Cc1nc(Sc2cc(C(=O)O)ccn2)sc1CC(=O)O`: the melting point was 212 to 214 °C.
